In patent publication US10662204B2 (PFIZER INC., priority 2018, dated 2020):

Experiments:
KRAS G12C = KRAS G12C (Homo sapiens, UniProt P01116, G12C); experiment: Cell Activity Assay: accumulation of GDP-bound KRAS G12C in MIAPaCa-2 cells (Raf-1 RBD capture, MSD readout); assay type: cell-based; parameters: endogenous in cells; host or cells: MIAPaCa-2; conditions: 6 hours, assay limit is 30.00
Protocol: Compounds presented in the present invention lead to the accumulation of the GDP bound Ras upon treatment of human cancer cell line.
The accumulation of the GDP-bound KRAS G12C in cellular environment was measured based on the principle that KRAS G12C only binds to its downstream kinase; Raf-1 (MAP Kinase Kinase Kinase), when in its active-GTP bound state. In this state, Ras binded to a domain of Raf-1 kinase referred to as the Ras Binding Domain (RBD).
MIAPaCa-2 cells were grown in RPMI 1640 medium (Gibco 11875) supplemented with 10% fetal bovine serum and 1% penicillin/streptomycin. Cells were seeded in 96-well tissue culture plates at a density of 30,000 cells/well and allowed to attach for 16-24 hours. Test compounds were prepared as a 10 mM stock in DMSO and serially diluted in 100% DMSO using a 3-fold dilution scheme. An intermediate 5× concentrated plate in complete growth medium was made and 25 μl/well was added to the 100 μl of cells for a final concentration of 0.3% DMSO. Each concentration of exemplary compound was tested in duplicate. The negative control wells were cells with control inhibitor at 10 μM, and the positive control wells were cells without drugs, DMSO only. Plates were incubated for 6 hours at 37° C., 5% CO2. Following treatment, cells were washed 3× with ice-cold PBS and 115 μl/well ice-cold 1× Assay/Lysis. Buffer with protease inhibitors was added (25 mM HEPES, pH 7.5, 150 mM NaCl, 1% NP-40, 10 mM MgCl2, 1 mM EDTA, 2% Glycerol). Following lysis samples were frozen at −80° C.
Raf-1 RBD (LJIC-1988A1) was diluted to 100 ng/well in PBS and 5 μl/well was spot coated onto MSD high bind SECTOR plates (L15XB). Plates were incubated at room temperature for 1 hour on an orbital shaker. Plates were washed with PBS/0.05% Tween-20 and 50 μl/well of thawed lysate samples were added, followed by 50 μl of 1% MSD Blocker A in PBS/0.05 Tween-20 (R93BA). Plates were incubated for 1 hour on an orbital shaker and washed with PBS/0.05% Tween-20. 25 μl/well of Anti-pan-Ras Antibody (Cell Biolabs 244003) diluted 1:3000 was added in 1% MSD Blocker A solution and plates were incubated for 1 hour on an orbital shaker and washed with PBS/0.05% Tween-20. SULFO-TAG goat anti-mouse secondary antibody (MSD R32AC) was diluted 1:500 in MSD Blocker A solution and added at 25 μL/well. Plates were incubated for 1 hour on an orbital shaker and washed with PBS/0.05% Tween-20. 150 μl/well of Read Buffer T (MSD R92TC) diluted 1:3 in H2O was added and plates were read on a Meso Scale Discovery Sector Imager S600.
KRAS signal was normalized to maximum inhibition and DMSO control values, and IC50 values were generated using a 4 parameter fit of the dose response curve. The decrease in IC50 reflects that the exemplary compound lead to a higher level of accumulation of GDP-bound KRAS G12C than another exemplary compounds at specific timepoint of treatment of cancer cell line.

[1] = biological target: T1, GDP-loaded KRAS (1-169) G12C, C51S, C80L, C118S (Homo sapiens, UniProt P01116, C118S/C51S/C80L/G12C); experiment: Mass Spectrometry Reactivity Assay (MSRA): covalent adduct of compound and KRAS G12C, Percent Modification; assay type: binding; conditions: 5.0 μM compound, 0.017 hr
T1 construct: GDP-loaded KRAS (1-169) G12C, C51S, C80L, C118S
Protocol: Mass Spectrometry Reactivity Assay (MSRA)
Compounds presented in the present invention covalently bind to KRAS G12C using MSRA to detect a covalent adduct of the exemplary compound and KRAS G12C.
GDP-loaded KRAS (1-169) G12C, C51S, C80L, C118S were diluted in the protein assay buffer 25 mM Hepes pH7.5, 200 mM NaCl, 5% glycerol to concentration of 5 μM and 20 μl of protein was transferred into 96-well plate. Initial compound stocks were generated at concentrations 100-fold higher that their desired assay concentrations. See K-Ras(G12C) inhibitors allosterically control GTP affinity and effector interactions; Ostrem J M, Peters U, Sos M L, Wells J A, Shokat K M; Nature. 2013, Nov. 28; 503(7477):548-51.
Exemplary compounds dissolved in DMSO were diluted 100-fold into solution containing 20 μl of 5 μM KRAS protein in the 96-well plate to initiate the reaction. Mosquito (TPP Lab tech) liquid handling robot was used to add compounds to protein solution. Typical final concentration of the compounds was 5 μM or 10 μM. The plates were placed on a shaker for 1 min at RT, sealed and incubated at room temperature for specified time period. 5 μl of reaction mix was added to 10 μl of 0.2% formic acid stop solution and mixed well. Typical end points were 1, 15, 30, and 60 min.
Data were collected using Waters Acquity H-class UPLC system/Xevo G2-XS TOF mass spectrometer. The protein was injected in their liquid phase onto a Bruker Microtrap protein column TR1/15109/03. The following buffers were used to set LC gradient: Buffer A: 0.2% formic acid H2O; B: 0.2% formic acid CAN. The protein was eluted from the column using the following LC Gradient: 0-0.4 min, 10% B to 30% B; 0.4 min-2.4 min, to 90% B, 2.5 min, 10% B, 3 min, 10% B. Initial data analysis was performed using MaxEnt software right after data acquisition.
The standard auto processing function was used to define percentage of unmodified and modified KRAS protein using MexEnt software right after data acquisition. The highest peak was defined as 100% while smaller peak as assigned the number defined by autoprocessing function. The percent of modification corresponding to modified with exemplary compound and unmodified KRAS GDP-loaded KRAS (1-169) G12C, C51S, C80L, C118S were exported to Xcel data analysis software.
The percent of modified protein at the defined concentration of exemplary compound was calculated using the following formula: % mod=Num of modified peak/Sum of modified+unmodified. The resultant value defined as Percent Modification (PM) and an increase in PM reflects that the specific compound is better than other compounds at specified compound concentration at a given time point.

Row | IC50 (KRAS G12C) | MSRA (% modification) 5.0 μM 0.017 hr [1] | Structure (SMILES)
1 | 0.037 µM | 60% | C=CC(=O)N1CCN(c2nc(O[C@@H]3CN(C)C[C@H]3CC)nc3c(Oc4c(Cl)c(F)cc5[nH]ncc45)nc(Cl)cc23)CC1 (racemic) [Example 28G, rac-1-[4-(6-chloro-8-[(5-chloro-6-fluoro-1H-indazol-4-yl)oxy]-2-{[(3S,4R)-4-ethyl-1-methylpyrrolidin-3-yl]oxy}pyrido[3,4-d]pyrimidin-4-yl)piperazin-1-yl]prop-2-en-1-one]
2 | 0.026 µM | 53% | C=CC(=O)N1CCN(c2nc(O[C@@H]3COC[C@H]3N(C)C)nc3c(Oc4c(Cl)c(F)cc5[nH]ncc45)nc(Cl)cc23)CC1 (racemic) [Example 30G, rac-1-[4-(6-chloro-8-[(5-chloro-6-fluoro-1H-indazol-4-yl)oxy]-2-{[(3S,4R)-4-(dimethylamino)oxolan-3-yl]oxy}pyrido[3,4-d]pyrimidin-4-yl)piperazin-1-yl]prop-2-en-1-one]
3 | 0.135 µM | 26% | C=CC(=O)N1CCN(c2nc(O[C@@H]3CN(C)C[C@@H]3C)nc3c(Oc4c(Cl)c(F)cc5[nH]ncc45)nc(Cl)cc23)CC1 (racemic) [Example 31G, rac-1-[4-(6-chloro-8-[(5-chloro-6-fluoro-1H-indazol-4-yl)oxy]-2-{[(3R,4R)-1,4-dimethylpyrrolidin-3-yl]oxy}pyrido[3,4-d]pyrimidin-4-yl)piperazin-1-yl]prop-2-en-1-one]
4 | 0.016 µM | 44% | C=CC(=O)N1CCN(c2nc(O[C@@H]3CN(C)C[C@H]3C)nc3c(Oc4c(Cl)c(F)cc5[nH]ncc45)nc(Cl)cc23)CC1 (racemic) [Example 32G, rac-1-[4-(6-chloro-8-[(5-chloro-6-fluoro-1H-indazol-4-yl)oxy]-2-{[(3S,4R)-1,4-dimethylpyrrolidin-3-yl]oxy}pyrido[3,4-d]pyrimidin-4-yl)piperazin-1-yl]prop-2-en-1-one]
5 | 0.168 µM | 19% | C=CC(=O)N1CCN(c2nc(O[C@@H]3CN(C)C[C@H]3OCC(F)F)nc3c(Oc4c(Cl)c(F)cc5[nH]ncc45)nccc23)CC1 (racemic) [Example 32I, rac-1-[4-(8-[(5-chloro-6-fluoro-1H-indazol-4-yl)oxy]-2-{[(3R,4R)-4-(2,2-difluoro-ethoxy)-1-methyl-pyrrolidin-3-yl]oxy}pyrido [3,4-d]pyrimidin-4-yl)piperazin-1-yl]prop-2-en-1-one]
6 | 0.052 µM | 51% | C=CC(=O)N1CCN(c2nc(O[C@@H]3CCN(CCOC)C[C@H]3C)nc3c(Oc4c(Cl)c(F)cc5[nH]ncc45)nc(Cl)cc23)CC1 (racemic) [Example 33G, rac-1-[4-(6-chloro-8-[(5-chloro-6-fluoro-1H-indazol-4-yl)oxy]-2-{[(3R,4R)-1-(2-methoxyethyl)-3-methylpiperidin-4-yl]oxy}pyrido[3,4-d]pyrimidin-4-yl)piperazin-1-yl]prop-2-en-1-one]
7 | 0.063 µM | 47% | C=CC(=O)N1CCN(c2nc(O[C@@H]3CCN(C)C[C@H]3C)nc3c(Oc4c(Cl)c(F)cc5[nH]ncc45)nc(Cl)cc23)CC1 (racemic) [Example 34G, rac-1-[4-(6-chloro-8-[(5-chloro-6-fluoro-1H-indazol-4-yl)oxy]-2-{[(3R,4R)-1,3-dimethylpiperidin-4-yl]oxy}pyrido[3,4-d]pyrimidin-4-yl)piperazin-1-yl]prop-2-en-1-one]
8 | 0.029 µM | 57% | C=CC(=O)N1CCN(c2nc(O[C@@H]3CN(C)C[C@H]3C(F)F)nc3c(Oc4c(Cl)c(F)cc5[nH]ncc45)nccc23)CC1 (racemic) [Example 36I, rac-1-[4-(8-[(5-chloro-6-fluoro-1H-indazol-4-yl)oxy]-2-{[(3S,4R)-4-(difluoro-methyl)-1-methyl-pyrrolidin-3-yl]oxy}pyrido [3,4-d]pyrimidin-4-yl)piperazin-1-yl]prop-2-en-1-one]
9 | 0.083 µM | 31% | C=CC(=O)N1CCN(c2nc(O[C@@H]3CN(C)C[C@H]3C3CC3)nc3c(Oc4c(Cl)c(F)cc5[nH]ncc45)nccc23)CC1 (racemic) [Example 39I, rac-1-[4-(8-[(5-chloro-6-fluoro-1H-indazol-4-yl)oxy]-2-{[(3S,4R)-4-cyclo-propyl-1-methyl-pyrrolidin-3-yl]oxy}pyrido [3,4-d]pyrimidin-4-yl)piperazin-1-yl]prop-2-en-1-one]
10 | 0.031 µM | 39% | C=CC(=O)N1CCN(c2nc(O[C@@H]3CN(C)C[C@H]3C)nc3c(Oc4c(Cl)c(Cl)cc5[nH]ncc45)nccc23)CC1 (racemic) [Example 51I, rac-1-[4-(8-[(5,6-dichloro-1H-indazol-4-yl)oxy]-2-{[(3S,4R)-1,4-dimethyl-pyrrolidin-3-yl]oxy}pyrido [3,4-d]pyrimidin-4-yl)piperazin-1-yl]prop-2-en-1-one]
11 | 0.059 µM | 15% | C=CC(=O)N1CCN(c2nc(O[C@@H]3CN(C)CC[C@H]3C)nc3c(Oc4c(Cl)c(F)cc5[nH]ncc45)nccc23)CC1 (racemic) [Example 53I, rac-1-[4-(8-[(5-chloro-6-fluoro-1H-indazol-4-yl)oxy]-2-{[(3S,4R)-1,4-dimethyl-piperidin-3-yl]oxy}pyrido [3,4-d]pyrimidin-4-yl)piperazin-1-yl]prop-2-en-1-one]
12 | 0.006 µM | 58% | C=CC(=O)N1CCN(c2nc(O[C@@H]3CN(C)C[C@H]3C(F)F)nc3c(Oc4c(Cl)c(F)cc5[nH]ncc45)nccc23)CC1 (single isomer, unassigned) [Example 58I]
13 | 0.123 µM | 13% | C=CC(=O)N1CCN(c2nc(O[C@@H]3CN(C)C[C@H]3C(F)F)nc3c(Oc4c(Cl)c(F)cc5[nH]ncc45)nccc23)CC1 (single isomer, unassigned) [Example 59I]
